Structures can show the parent of a compound that is named as a salt.

One experiment deals with Cathepsin S (UniProt P25774). Briefly: Cathepsin enzyme inhibition assay (fluorogenic peptide substrate Z-Val-Val-Arg-AMC), Cathepsin S. The experiment is classed as biochemical, human and mouse. Particulars: enzyme 1 nM, substrate 20 μM, pH 6.5; read-out: CatS IC50. The procedure: (§1) Cathepsin Enzyme Inhibition Assay
(§2) Enzyme activity is measured by observing the increase in fluorescence intensity caused by cleavage of a peptide substrate containing a fluorophore whose emission is quenched in the intact peptide.
(§3) Assay buffer: 100 mM potassium phosphate pH 6.5, EDTA-Na 5 mM, Triton X-100 0.001%, DDT 5 mM.
(§4) Enzymes (all at 1 nM): human and mouse Cathepsin S, Cat K, Cat B, Cat L Substrate (20 μM): Z-Val-Val-Arg-AMC, except for Cat K which uses Z-Leu-Arg-AMC (both from Bachem).
(§5) AMC=7-Amino-4-Methyl-Coumarin.
Enzyme is added to the substance dilutions in 96-well microtitre plates and the reaction is started with substrate. […] IC50 are calculated by standard methods. The results are expressed in μM in the following table.

The next experiment has as its target Cat L (UniProt P07711). Briefly: Cathepsin enzyme inhibition assay (fluorogenic peptide substrate Z-Val-Val-Arg-AMC), Cathepsin L. Format: biochemical, human and mouse. Conditions: enzyme 1 nM, substrate 20 μM, pH 6.5; read-out: CatL IC50. The procedure:
as §1, §2, §3, §4, §5
Excitation 360 nm, Emission 465 nm.
Enzyme is added to the substance dilutions in 96-well microtitre plates and the reaction is started with substrate. Fluorescence emission is measured over 20 minutes, during which time a linear increase is observed in the absence of inhibitor. IC50 are calculated by standard methods. The results are expressed in μM in the following table.

As for `N#CC1(NC(=O)C2C[C@@H](S(=O)(=O)c3ccc(OCC(F)(F)F)cc3Cl)CN2C(=O)C2(c3ccc(Cl)nc3)CC2)CC1` (stereo in doubt) [Example 377, (R)-1-[1-(6-Chloro-pyridin-3-yl)-cyclopropanecarbonyl]-4-[2-chloro-4-(2,2,2-trifluoro-ethoxy)-benzenesulfonyl]-pyrrolidine-2-carboxylic acid (1-cyano-cyclopropyl)-amide], the results for the concentration for half-maximal inhibition (IC50) on Cathepsin S and at Cat L were 0.00024 µM and 0.293 µM, respectively.
Consider `CC(C)(C)OC(=O)N1C[C@H](S(=O)(=O)c2ccccc2CO)C[C@H]1C(=O)NC1(C#N)CC1` [Example 1, (2S,4R)-2-(1-Cyano-cyclopropylcarbamoyl)-4-(2-hydroxymethyl-benzenesulfonyl)-pyrrolidine-1-carboxylic acid tert-butyl ester], for which the values for the concentration for half-maximal inhibition (IC50) on Cathepsin S and at Cat L were 0.015 µM and not below 25 µM, respectively.
For `CC(C)(C)OC(=O)N1C[C@H](S(=O)(=O)c2ccccc2OC(F)(F)F)C[C@H]1C(=O)NC1(C#N)CC1` [Example 2, (2S,4R)-2-(1-Cyano-cyclopropylcarbamoyl)-4-(2-trifluoromethoxy-benzenesulfonyl)-pyrrolidine-1-carboxylic acid tert-butyl ester], the IC50 on Cathepsin S is 0.0435 µM; on Cat L, not below 25 µM.
The corresponding values for `CC(C)(C)OC(=O)N1C[C@H](S(=O)(=O)c2ccc(-n3ccnc3)cc2)C[C@H]1C(=O)NC1(C#N)CC1` [Example 3, (2S,4R)-2-(1-Cyano-cyclopropylcarbamoyl)-4-(4-imidazol-1-yl-benzenesulfonyl)-pyrrolidine-1-carboxylic acid tert-butyl ester] are 0.011 µM and not below 25 µM.
On to `CC(C)(C)OC(=O)N1C[C@H](S(=O)(=O)c2ccc(Cl)cc2Cl)C[C@H]1C(=O)NC1(C#N)CC1` [Example 4, (2S,4R)-2-(1-Cyano-cyclopropylcarbamoyl)-4-(2,4-dichloro-benzenesulfonyl)-pyrrolidine-1-carboxylic acid-tert-butyl ester], for which the IC50 came out at 0.0052 µM on Cathepsin S and 16.5 µM at Cat L.
For `CC(C)(C)OC(=O)N1C[C@H](S(=O)(=O)c2c(Cl)cccc2Cl)C[C@H]1C(=O)NC1(C#N)CC1` [Example 5, (2S,4R)-2-(1-Cyano-cyclopropylcarbamoyl)-4-(2,6-dichloro-benzenesulfonyl)-pyrrolidine-1-carboxylic acid tert-butyl ester] the same measures were 0.0008 µM and 9.77 µM.
The corresponding values for `CC(C)(C)OC(=O)N1C[C@H](S(=O)(=O)c2ccc(F)cc2F)C[C@H]1C(=O)NC1(C#N)CC1` [Example 6, (2S,4R)-2-(1-Cyano-cyclopropylcarbamoyl)-4-(2,4-difluoro-benzenesulfonyl)-pyrrolidine-1-carboxylic acid tert-butyl ester] are 0.0385 µM and not below 25 µM.
Turning to `CC(C)(C)OC(=O)N1C[C@H](S(=O)(=O)c2ccc(Br)cc2C(F)(F)F)C[C@H]1C(=O)NC1(C#N)CC1` [Example 7, (2S,4R)-4-(4-Bromo-2-trifluoromethyl-benzenesulfonyl)-2-(1-cyano-cyclopropylcarbamoyl)-pyrrolidine-1-carboxylic acid tert-butyl ester], the half-maximal inhibitory concentration (IC50) was 0.0027 µM on Cathepsin S and not below 25 µM at Cat L.
The corresponding values for `CN1CCN(c2ccc(S(=O)(=O)[C@@H]3C[C@@H](C(=O)NC4(C#N)CC4)N(C(=O)OC(C)(C)C)C3)c(C(F)(F)F)c2)CC1` [Example 8, (2S,4R)-2-(1-Cyano-cyclopropylcarbamoyl)-4-[4-(4-methyl-piperazin-1-yl)-2-trifluoromethyl-benzenesulfonyl]-pyrrolidine-1-carboxylic acid tert-butyl ester] are 0.0007 µM and not below 25 µM.
The corresponding values for `CC(C)(C)OC(=O)N1C[C@H](S(=O)(=O)c2ccc(-n3cnc4ccccc43)cc2C(F)(F)F)C[C@H]1C(=O)NC1(C#N)CC1` [Example 9, (2S,4R)-4-(4-Benzoimidazol-1-yl-2-trifluoromethyl-benzenesulfonyl)-2-(1-cyano-cyclopropylcarbamoyl)-pyrrolidine-1-carboxylic acid tert-butyl ester] are 0.0006 µM and not below 25 µM.
For `Cc1ccc(=O)n(-c2ccc(S(=O)(=O)[C@@H]3C[C@@H](C(=O)NC4(C#N)CC4)N(C(=O)OC(C)(C)C)C3)c(C(F)(F)F)c2)n1` [Example 10, (2S,4R)-2-(1-Cyano-cyclopropylcarbamoyl)-4-[4-(3-methyl-6-oxo-6H-pyridazin-1-yl)-2-trifluoromethyl-benzenesulfonyl]-pyrrolidine-1-carboxylic acid tert-butyl ester] the same measures were 0.0007 µM and not below 25 µM.
In the case of `CCc1ccccc1S(=O)(=O)[C@H]1CN[C@H](C(=O)NC2(C#N)CC2)C1` [Example 11, (2S,4R)-4-(2-Ethyl-benzenesulfonyl)-pyrrolidine-2-carboxylic acid (1-cyano-cyclopropyl)-amide Hydrochloride], the half-maximal inhibitory concentration (IC50) on Cathepsin S is 0.03 µM; at Cat L it was not below 25 µM.
The corresponding values for `N#CC1(NC(=O)[C@@H]2C[C@@H](S(=O)(=O)c3ccccc3CO)CN2)CC1` [Example 12, (2S,4R)-4-(2-Hydroxymethyl-benzenesulfonyl)-pyrrolidine-2-carboxylic acid (1-cyano-cyclopropyl)-amide Hydrochloride] are 0.018 µM and 42.2 µM.
Regarding `N#CC1(NC(=O)[C@@H]2C[C@@H](S(=O)(=O)c3ccccc3OC(F)(F)F)CN2)CC1` [Example 13, (2S,4R)-4-(2-Trifluoromethoxy-benzenesulfonyl)-pyrrolidine-2-carboxylic acid (1-cyano-cyclopropyl)-amide Hydrochloride], the values for the concentration for half-maximal inhibition (IC50) at Cathepsin S and on Cat L were 0.0465 µM and not below 25 µM, respectively.
The corresponding values for `N#CC1(NC(=O)[C@@H]2C[C@@H](S(=O)(=O)c3ccc(-n4ccnc4)cc3)CN2)CC1` [Example 14, (2S,4R)-4-(4-Imidazol-1-yl-benzenesulfonyl)-pyrrolidine-2-carboxylic acid (1-cyano-cyclopropyl)-amide Hydrochloride] are 0.0032 µM and not below 25 µM.
As to `N#CC1(NC(=O)[C@@H]2C[C@@H](S(=O)(=O)c3ccc(Cl)cc3Cl)CN2)CC1` [Example 15, (2S,4R)-4-(2,4-Dichloro-benzenesulfonyl)-pyrrolidine-2-carboxylic acid (1-cyano-cyclopropyl)-amide Hydrochloride], the IC50 on Cathepsin S stood at 0.0045 µM; at Cat L it was 4.92 µM.
For `N#CC1(NC(=O)[C@@H]2C[C@@H](S(=O)(=O)c3c(Cl)cccc3Cl)CN2)CC1` [Example 16, (2S,4R)-4-(2,6-Dichloro-benzenesulfonyl)-pyrrolidine-2-carboxylic acid (1-cyano-cyclopropyl)-amide Hydrochloride] the same measures were 0.0132 µM and not below 25 µM.
As to `N#CC1(NC(=O)[C@@H]2C[C@@H](S(=O)(=O)c3ccc(F)cc3F)CN2)CC1` [Example 17, (2S,4R)-4-(2,4-Difluoro-benzenesulfonyl)-pyrrolidine-2-carboxylic acid (1-cyano-cyclopropyl)-amide Hydrochloride], the IC50 at Cathepsin S was 0.032 µM; at Cat L, not below 25 µM.
For `N#CC1(NC(=O)[C@@H]2C[C@@H](S(=O)(=O)c3ccc(Br)cc3C(F)(F)F)CN2)CC1` [Example 18, (2S,4R)-4-(4-Bromo-2-trifluoromethyl-benzenesulfonyl)-pyrrolidine-2-carboxylic acid (1-cyano-cyclopropyl)-amide hydrochloride] the same measures were 0.0033 µM and 30.3 µM.
`N#CC1(NC(=O)[C@@H]2C[C@@H](S(=O)(=O)c3ccc(-n4cccn4)cc3C(F)(F)F)CN2)CC1` [Example 19, (2S,4R)-4-(4-Pyrazol-1-yl-2-trifluoromethyl-benzenesulfonyl)-pyrrolidine-2-carboxylic acid (1-cyano-cyclopropyl)-amide hydrochloride]: the concentration for half-maximal inhibition (IC50) is 0.0013 µM on Cathepsin S and not below 25 µM on Cat L.
`N#CC1(NC(=O)[C@@H]2C[C@@H](S(=O)(=O)c3ccccc3C(F)(F)F)CN2c2ncccc2C(F)(F)F)CC1` [Example 186, (2S,4R)-4-(2-Trifluoromethyl-benzenesulfonyl)-1-(3-trifluoromethyl-pyridin-2-yl)-pyrrolidine-2-carboxylic acid (1-cyano-cyclopropyl)-amide]: at Cat L, the half-inhibitory concentration (IC50) was not below 25 µM.
As for `N#CC1(NC(=O)[C@H]2C[C@@H](S(=O)(=O)c3ccccc3C(F)(F)F)CN2c2ncccc2C(F)(F)F)CC1` [Example 187, (2R,4R)-4-(2-Trifluoromethyl-benzenesulfonyl)-1-(3-trifluoromethyl-pyridin-2-yl)-pyrrolidine-2-carboxylic acid (1-cyano-cyclopropyl)-amide], the IC50 at Cat L was not below 25 µM.
In the case of `N#CC1(NC(=O)[C@@H]2C[C@@H](S(=O)(=O)c3ccccc3C(F)(F)F)CN2c2ncccn2)CC1` [Example 408, (2S,4R)-1-Pyrimidin-2-yl-4-(2-trifluoromethyl-benzenesulfonyl)-pyrrolidine-2-carboxylic acid (1-cyano-cyclopropyl)-amide], the IC50 on Cat L was not below 25 µM.

The term IC50 denotes the midpoint of a concentration-inhibition curve.

The values are drawn from patent US8163793B2, “Proline derivatives” (Hoffman-La Roche Inc., priority 2009, dated 2012).
